Reference: the NIST ThermoML archive (doi:10.1016/j.jct.2016.10.009)
± gives the expanded uncertainty stated by the source.

Assay: xn = mol fraction of the nth substance listed
Conditions: 293.15 K, Liquid, Vibrating tube method

CC(C)OC(C)C [diisopropyl ether] + CCC(C)O
mass density [kg/m3]
Conditions	x2 = 0	x2 = 0.2036	x2 = 0.3227	x2 = 0.4464	x2 = 0.4973	x2 = 0.6595	x2 = 0.8482
100 kPa	723.5 ± 0.7	737.9 ± 0.7	746.6 ± 0.7	756.1 ± 0.7	–	774.1 ± 0.7	791.8 ± 0.7
1000 kPa	724.6 ± 0.7	739 ± 0.7	747.6 ± 0.7	757 ± 0.7	761.1 ± 0.7	774.9 ± 0.7	792.6 ± 0.7
5000 kPa	729.4 ± 0.7	743.4 ± 0.7	751.8 ± 0.7	761.1 ± 0.7	765 ± 0.7	778.5 ± 0.7	795.9 ± 0.7
10000 kPa	734.9 ± 0.7	748.6 ± 0.7	756.8 ± 0.7	765.7 ± 0.7	769.6 ± 0.7	782.9 ± 0.7	799.8 ± 0.7
15000 kPa	740 ± 0.8	753.3 ± 0.8	761.4 ± 0.8	770.2 ± 0.7	774 ± 0.7	786.9 ± 0.7	803.5 ± 0.7
20000 kPa	744.8 ± 0.8	757.9 ± 0.8	765.7 ± 0.8	774.3 ± 0.8	778.1 ± 0.8	790.8 ± 0.8	807.1 ± 0.8
25000 kPa	749.4 ± 0.8	762.2 ± 0.8	769.9 ± 0.8	778.3 ± 0.8	782 ± 0.8	794.5 ± 0.8	810.4 ± 0.8
30000 kPa	753.7 ± 0.8	766.2 ± 0.8	773.8 ± 0.8	782.2 ± 0.8	785.7 ± 0.8	798 ± 0.8	813.7 ± 0.8
35000 kPa	757.7 ± 0.8	770.1 ± 0.8	777.6 ± 0.8	785.7 ± 0.8	789.3 ± 0.8	801.3 ± 0.8	816.8 ± 0.8
40000 kPa	761.6 ± 0.8	773.8 ± 0.8	781.1 ± 0.8	789.2 ± 0.8	792.7 ± 0.8	804.5 ± 0.8	819.8 ± 0.8
45000 kPa	765.3 ± 0.9	777.3 ± 0.9	784.6 ± 0.8	792.5 ± 0.8	796 ± 0.8	807.7 ± 0.8	822.7 ± 0.8
50000 kPa	768.9 ± 0.9	780.7 ± 0.9	787.9 ± 0.9	795.7 ± 0.9	799.1 ± 0.9	810.7 ± 0.8	825.5 ± 0.8
55000 kPa	772.4 ± 0.9	784 ± 0.9	791.1 ± 0.9	798.8 ± 0.9	802.2 ± 0.9	813.6 ± 0.9	828.3 ± 0.8
60000 kPa	775.7 ± 0.9	787.1 ± 0.9	794.2 ± 0.9	801.8 ± 0.9	805.2 ± 0.9	816.4 ± 0.9	830.9 ± 0.8
65000 kPa	778.9 ± 1	790.3 ± 0.9	797.2 ± 0.9	804.8 ± 0.9	808.1 ± 0.9	819.2 ± 0.9	833.5 ± 0.9
70000 kPa	782 ± 1	793.2 ± 1	800.1 ± 0.9	807.5 ± 0.9	810.8 ± 0.9	821.8 ± 0.9	836 ± 0.9
80000 kPa	787.9 ± 1	798.9 ± 1	805.6 ± 1	812.9 ± 1	816.2 ± 1	826.9 ± 0.9	840.8 ± 0.9
90000 kPa	793.5 ± 1.1	804.4 ± 1	810.9 ± 1	818.1 ± 1	821.3 ± 1	831.9 ± 1	845.5 ± 0.9
100000 kPa	798.8 ± 1.1	809.3 ± 1.1	815.9 ± 1	822.9 ± 1	826 ± 1	836.4 ± 1	849.8 ± 1
110000 kPa	803.9 ± 1.1	814.2 ± 1.1	820.7 ± 1.1	827.6 ± 1.1	830.7 ± 1	840.9 ± 1	–
